Test results from patent US20220142164A1, “HERBICIDAL COMPOUNDS” (SYNGENTA CROP PROTECTION AG, priority 2019, published 2022).

Assays:
Test in all cases: Post-emergence efficacy, glasshouse pot test
Assay type in all cases: in vivo
Settings in all cases: 312 h, post-emergence spray, Application Rate 500 g/Ha, evaluated after 13 days, 100=total damage to plant, 0=no damage to plant
[1] = test system: Amaranthus palmeri (AMAPA)
Procedure: (§1) Seeds of a variety of test species were sown in standard soil in pots. After cultivation for 14 days (post-emergence) under controlled conditions in a glasshouse (at 24/16° C., day/night; 14 hours light; 65% humidity), the plants were sprayed with an aqueous spray solution derived from the dissolution of the technical active ingredient formula (I) in a small amount of acetone and a special solvent and emulsifier mixture referred to as IF50 (11.12% Emulsogen EL360 TM+44.44% N-methylpyrrolidone+44.44% Dowanol DPM glycol ether), to create a 50 g/I solution which was then diluted to required concentration using 0.25% or 1% Empicol ESC70 (Sodium lauryl ether sulphate)+1% ammonium sulphate as diluent. The test plants were then grown in a glasshouse under controlled conditions (at 24/16° C., day/night; 14 hours light; 65% humidity) and watered twice daily. After 13 days the test was evaluated (100=total damage to plant; 0=no damage to plant). Ipomoea hederacea (IPOHE), Euphorbia heterophylla (EPHHL), Chenopodium album (CHEAL), Amaranthus palmeri (AMAPA), Lolium perenne (LOLPE), Digitaria sanguinalis (DIGSA), Eleusine indica (ELEIN), Echinochloa crus-galli (ECHCG), Setaria faberi (SETFA)

[2] = test system: Chenopodium album (CHEAL)
Procedure: as §1

[3] = test system: Digitaria sanguinalis (DIGSA)
Procedure: as §1

[4] = test system: Echinochloa crus-galli (ECHCG)
Procedure: as §1

Eleusine indica (ELEIN) = test system: Eleusine indica (ELEIN)
Procedure: as §1

[5] = test system: Euphorbia heterophylla (EPHHL)
Procedure: as §1

[6] = test system: Ipomoea hederacea (IPOHE)
Procedure: as §1

Lolium perenne (LOLPE) = test system: Lolium perenne (LOLPE)
Procedure: as §1

Setaria faberi (SETFA) = test system: Setaria faberi (SETFA)
Procedure: as §1

For O=C(C[n+]1ccc(-c2ncns2)cc1)NCCS(=O)(=O)[O-] [Compound A9, 2-[[2-[4-(1,2,4-thiadiazol-5-yl)pyridin-1-ium-1-yl]acetyl]amino]ethanesulfonate], which pest or weed control at 500 g/ha [1] is on record?
Its pest or weed control at 500 g/ha is 90%.

And the pest or weed control at 500 g/ha [2]?
Its pest or weed control at 500 g/ha is 70%.

What about the pest or weed control at 500 g/ha [3] of the same compound?
Its pest or weed control at 500 g/ha is 30%.

And the pest or weed control at 500 g/ha [4]?
The pest or weed control at 500 g/ha was 30%.

What about the pest or weed control at 500 g/ha (Eleusine indica (ELEIN)) of the same compound?
Its pest or weed control at 500 g/ha is 50%.

What about the pest or weed control at 500 g/ha [5] of the same compound?
Its pest or weed control at 500 g/ha is 90%.

And the pest or weed control at 500 g/ha [6]?
The pest or weed control at 500 g/ha was 60%.

What about the pest or weed control at 500 g/ha (Lolium perenne (LOLPE)) of the same compound?
Its pest or weed control at 500 g/ha is 30%.

And the pest or weed control at 500 g/ha (Setaria faberi (SETFA))?
Its pest or weed control at 500 g/ha is 60%.

CN(CCS(=O)(=O)[O-])C(=O)C[n+]1ccc(-c2ncns2)cc1 [Compound A10] was tested. Which pest or weed control at 500 g/ha [1] did it give?
The pest or weed control at 500 g/ha was 90%.

And the pest or weed control at 500 g/ha [2]?
The pest or weed control at 500 g/ha was 20%.

What about the pest or weed control at 500 g/ha [3] of the same compound?
The pest or weed control at 500 g/ha was 40%.

And the pest or weed control at 500 g/ha [4]?
Its pest or weed control at 500 g/ha is 30%.

What about the pest or weed control at 500 g/ha (Eleusine indica (ELEIN)) of the same compound?
Its pest or weed control at 500 g/ha is 40%.

And the pest or weed control at 500 g/ha [5]?
Its pest or weed control at 500 g/ha is 80%.

What about the pest or weed control at 500 g/ha [6] of the same compound?
Its pest or weed control at 500 g/ha is 50%.

What about the pest or weed control at 500 g/ha (Lolium perenne (LOLPE)) of the same compound?
Its pest or weed control at 500 g/ha is 20%.

What about the pest or weed control at 500 g/ha (Setaria faberi (SETFA)) of the same compound?
The pest or weed control at 500 g/ha was 50%.

With O=C(O)CNC(=O)CC[n+]1ccc(-c2ncns2)cc1 [Compound A13] as the compound, how does the pest or weed control at 500 g/ha [1] read?
The pest or weed control at 500 g/ha was 100%.

And the pest or weed control at 500 g/ha [2]?
Its pest or weed control at 500 g/ha is 30%.

What about the pest or weed control at 500 g/ha [3] of the same compound?
Its pest or weed control at 500 g/ha is 70%.

And the pest or weed control at 500 g/ha [4]?
The pest or weed control at 500 g/ha was 50%.

And the pest or weed control at 500 g/ha (Eleusine indica (ELEIN))?
Its pest or weed control at 500 g/ha is 70%.

And the pest or weed control at 500 g/ha [5]?
The pest or weed control at 500 g/ha was 60%.

What about the pest or weed control at 500 g/ha [6] of the same compound?
Its pest or weed control at 500 g/ha is 20%.

And the pest or weed control at 500 g/ha (Lolium perenne (LOLPE))?
Its pest or weed control at 500 g/ha is 40%.

And the pest or weed control at 500 g/ha (Setaria faberi (SETFA))?
The pest or weed control at 500 g/ha was 80%.

What does the source list for O=C(CC[n+]1ccc(-c2ncns2)cc1)NCS(=O)(=O)[O-] [Compound A14, [3-[4-(1,2,4-thiadiazol-5-yl)pyridin-1-ium-1-yl]propanoylamino]methanesulfonate]?
pest or weed control at 500 g/ha [1]: 100%; pest or weed control at 500 g/ha [2]: 90%; pest or weed control at 500 g/ha [3]: 100%; pest or weed control at 500 g/ha [4]: 70%; pest or weed control at 500 g/ha (Eleusine indica (ELEIN)): 60%; pest or weed control at 500 g/ha [5]: 20%; pest or weed control at 500 g/ha [6]: 30%; pest or weed control at 500 g/ha (Lolium perenne (LOLPE)): 10%; pest or weed control at 500 g/ha (Setaria faberi (SETFA)): 70%

Which pest or weed control at 500 g/ha [1] does the source give for O=C(O)CCSC[n+]1ccc(-c2ncns2)cc1 [Compound A15, 3-[[4-(1,2,4-thiadiazol-5-yl)pyridin-1-ium-1-yl]methylsulfanyl]propanoic acid chloride] here?
The pest or weed control at 500 g/ha was 100%.

And the pest or weed control at 500 g/ha [2]?
The pest or weed control at 500 g/ha was 90%.

And the pest or weed control at 500 g/ha [3]?
Its pest or weed control at 500 g/ha is 100%.

What about the pest or weed control at 500 g/ha [4] of the same compound?
The pest or weed control at 500 g/ha was 100%.

And the pest or weed control at 500 g/ha (Eleusine indica (ELEIN))?
The pest or weed control at 500 g/ha was 90%.

And the pest or weed control at 500 g/ha [5]?
Its pest or weed control at 500 g/ha is 40%.

And the pest or weed control at 500 g/ha [6]?
The pest or weed control at 500 g/ha was 40%.

What about the pest or weed control at 500 g/ha (Lolium perenne (LOLPE)) of the same compound?
The pest or weed control at 500 g/ha was 50%.

And the pest or weed control at 500 g/ha (Setaria faberi (SETFA))?
The pest or weed control at 500 g/ha was 100%.

What does the source list for O=C(C[n+]1ccc(-c2ncns2)cc1)NC1(C(=O)O)CC1 [Compound A16]?
pest or weed control at 500 g/ha [1]: 100%; pest or weed control at 500 g/ha [2]: 90%; pest or weed control at 500 g/ha [3]: 80%; pest or weed control at 500 g/ha [4]: 90%; pest or weed control at 500 g/ha (Eleusine indica (ELEIN)): 40%; pest or weed control at 500 g/ha [5]: 90%; pest or weed control at 500 g/ha [6]: 50%; pest or weed control at 500 g/ha (Lolium perenne (LOLPE)): 50%; pest or weed control at 500 g/ha (Setaria faberi (SETFA)): 100%

For CC(C)(NC(=O)C[n+]1ccc(-c2ncns2)cc1)C(=O)O [Compound A17], which pest or weed control at 500 g/ha [1] is on record?
The pest or weed control at 500 g/ha was 100%.

What about the pest or weed control at 500 g/ha [2] of the same compound?
Its pest or weed control at 500 g/ha is 50%.

And the pest or weed control at 500 g/ha [3]?
Its pest or weed control at 500 g/ha is 80%.

And the pest or weed control at 500 g/ha [4]?
Its pest or weed control at 500 g/ha is 60%.

And the pest or weed control at 500 g/ha (Eleusine indica (ELEIN))?
The pest or weed control at 500 g/ha was 60%.

And the pest or weed control at 500 g/ha [5]?
Its pest or weed control at 500 g/ha is 70%.

What about the pest or weed control at 500 g/ha [6] of the same compound?
Its pest or weed control at 500 g/ha is 40%.

And the pest or weed control at 500 g/ha (Lolium perenne (LOLPE))?
The pest or weed control at 500 g/ha was 30%.

And the pest or weed control at 500 g/ha (Setaria faberi (SETFA))?
Its pest or weed control at 500 g/ha is 80%.

What does the source list for O=C(O)CCS(=O)(=O)C[n+]1ccc(-c2ncns2)cc1 [Compound A18, 3-[[4-(1,2,4-thiadiazol-5-yl)pyridin-1-ium-1-yl]methylsulfonyl]propanoic acid 2,2,2-trifluoroacetate]?
pest or weed control at 500 g/ha [1]: 100%; pest or weed control at 500 g/ha [2]: 90%; pest or weed control at 500 g/ha [3]: 100%; pest or weed control at 500 g/ha [4]: 90%; pest or weed control at 500 g/ha (Eleusine indica (ELEIN)): 100%; pest or weed control at 500 g/ha [5]: 60%; pest or weed control at 500 g/ha [6]: 70%; pest or weed control at 500 g/ha (Lolium perenne (LOLPE)): 40%; pest or weed control at 500 g/ha (Setaria faberi (SETFA)): 100%

For O=C(O)CS(=O)(=O)C[n+]1ccc(-c2ncns2)cc1 [Compound A19], which pest or weed control at 500 g/ha [1] is on record?
Its pest or weed control at 500 g/ha is 40%.

And the pest or weed control at 500 g/ha [2]?
Its pest or weed control at 500 g/ha is 50%.

What about the pest or weed control at 500 g/ha [3] of the same compound?
The pest or weed control at 500 g/ha was 30%.

What about the pest or weed control at 500 g/ha [4] of the same compound?
The pest or weed control at 500 g/ha was 30%.

And the pest or weed control at 500 g/ha (Eleusine indica (ELEIN))?
Its pest or weed control at 500 g/ha is 30%.

And the pest or weed control at 500 g/ha [5]?
The pest or weed control at 500 g/ha was 30%.

And the pest or weed control at 500 g/ha [6]?
Its pest or weed control at 500 g/ha is 10%.

And the pest or weed control at 500 g/ha (Lolium perenne (LOLPE))?
Its pest or weed control at 500 g/ha is 20%.

What about the pest or weed control at 500 g/ha (Setaria faberi (SETFA)) of the same compound?
The pest or weed control at 500 g/ha was 20%.
